The source of these data is PubChem BioAssay (NCI).

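Five compound concentrations were applied to cells in 96-well plates for 48 hours; endpoints were derived by simple linear interpolation of the resulting dose-response curve. GI50: concentration for 50% inhibition of growth. Definition used: TGI = concentration required for complete inhibition of growth.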

Some test systems named below: OVCAR-8 ovarian; 786-0 renal; NCI-H23 lung; EKVX NSCLC; BT-549 breast; U251 CNS; A498 renal; NCI-H460 lung; SF-268 CNS; HCT-15 colon.
Common to all, as to assay: inhibition of tumour cell growth, NCI panel, 48 h

On to `CC(=O)Nc1ccc2oc(=O)c3ccccc3c2c1`, for which the TGI with OVCAR-8 ovarian, in the assay on 786-0 renal, with NCI-H23 lung, in the assay with EKVX NSCLC, in the assay on BT-549 breast and with U251 CNS was over 100 µM in each case. The TGI with A498 renal, in the assay with NCI-H460 lung, with SF-268 CNS and in the assay with HCT-15 colon was over 100 µM throughout.

Take `O=C1CCC2=C3C4CCCCC4C(=O)C4CCCC(OC2C1)C34` (centres undefined): the GI50 in the assay with OVCAR-8 ovarian was 0.397 µM; with 786-0 renal, 2.51 µM; in the assay on NCI-H23 lung, 0.417 µM; with EKVX NSCLC, 12.6 µM; in the assay with BT-549 breast it was 1.4 µM; with U251 CNS it was 0.428 µM. Moreover, the GI50 is 31.8 µM in the assay on A498 renal, 0.87 µM in the assay on NCI-H460 lung, 0.471 µM in the assay with SF-268 CNS and 0.472 µM in the assay with HCT-15 colon. Besides, the TGI in the assay with OVCAR-8 ovarian is 23.7 µM; in the assay on 786-0 renal it was over 29.8 µM; in the assay on NCI-H23 lung, 2.73 µM; with EKVX NSCLC it was over 100 µM; in the assay on BT-549 breast, 6.03 µM; with U251 CNS it was over 20.2 µM. Moreover, the TGI was over 63.1 µM in the assay with A498 renal, 4.57 µM in the assay on NCI-H460 lung, over 21.8 µM in the assay on SF-268 CNS and over 21.7 µM in the assay on HCT-15 colon.

With `C#Cc1cccc(Nc2ncnc3ccc(-c4cnc(Cl)c(NS(C)(=O)=O)c4)cc23)c1`, the GI50 was 0.825 µM in the assay with OVCAR-8 ovarian; 0.343 µM with 786-0 renal; 0.385 µM in the assay on NCI-H23 lung; 0.253 µM with EKVX NSCLC; 0.183 µM with BT-549 breast; 0.284 µM in the assay with U251 CNS. Further, the GI50 is 0.0334 µM with A498 renal, 0.572 µM in the assay on NCI-H460 lung, 0.155 µM in the assay with SF-268 CNS and 0.295 µM in the assay on HCT-15 colon. Further, the TGI is over 33.5 µM in the assay on OVCAR-8 ovarian; 4.55 µM in the assay on 786-0 renal; 8.03 µM in the assay on NCI-H23 lung; 1.87 µM in the assay on EKVX NSCLC; 1.41 µM in the assay on BT-549 breast; 2.68 µM in the assay on U251 CNS. The TGI in the assay with A498 renal was determined as 0.254 µM; with NCI-H460 lung, 11.7 µM; in the assay on SF-268 CNS, 1.67 µM; in the assay with HCT-15 colon, 1.97 µM.

As to `O=C(O[C@H]1CN[C@H](C#Cc2cc3ncnc(Nc4ccc(OCc5cccc(F)c5)c(Cl)c4)c3s2)C1)N1CCOCC1`, the GI50 with OVCAR-8 ovarian was 7.35 µM; in the assay with 786-0 renal it was 4.68 µM; in the assay with NCI-H23 lung, 9.7 µM; in the assay with EKVX NSCLC, 0.6 µM; in the assay with BT-549 breast, 4.28 µM; in the assay with U251 CNS, 8.7 µM. For the same compound, the GI50 in the assay with A498 renal was 1.76 µM; with NCI-H460 lung, 6.4 µM; in the assay on SF-268 CNS it was 5.81 µM; in the assay with HCT-15 colon, 8.09 µM. Moreover, the TGI is over 25 µM in the assay on OVCAR-8 ovarian; 9.66 µM with 786-0 renal; over 25 µM in the assay on NCI-H23 lung; 24.2 µM with EKVX NSCLC; 8.69 µM in the assay on BT-549 breast; over 25 µM in the assay on U251 CNS. For the same compound, the TGI was 8.21 µM in the assay with A498 renal, over 25 µM in the assay with NCI-H460 lung, over 25 µM with SF-268 CNS and over 25 µM in the assay with HCT-15 colon.

Take `O=C1CC2C(=O)C1C(C(=O)O)C2C(=O)O` (centres undefined): the TGI with OVCAR-8 ovarian, with 786-0 renal, in the assay with NCI-H23 lung, with EKVX NSCLC, with BT-549 breast and in the assay on U251 CNS was over 100 µM throughout. Also, the TGI in the assay on A498 renal, with NCI-H460 lung, in the assay on SF-268 CNS and with HCT-15 colon was over 100 µM each time.

`CC1OC(O[C@H]2/C=C/C=C/C=C/C=C/C=C/C=C/C=C/[C@H](C)[C@@H](O)[C@@H](C)[C@H](C)OC(=O)C[C@H](O)C[C@H](O)CC[C@@H](O)[C@H](O)C[C@H](O)C[C@]3(O)C[C@H](O)[C@@H](C(=O)O)[C@H](C2)O3)C(O)C(N)C1O` (some centres undefined): the GI50 in the assay with OVCAR-8 ovarian was 33 µM; with NCI-H23 lung it was 14.3 µM; in the assay on EKVX NSCLC it was 11.1 µM; in the assay with BT-549 breast it was 20.6 µM; in the assay with U251 CNS it was 14.3 µM; with A498 renal, 10.4 µM. The GI50 in the assay with NCI-H460 lung is 19.1 µM; in the assay with SF-268 CNS, 25.6 µM; with HCT-15 colon it was 44.7 µM. The TGI with OVCAR-8 ovarian was determined as 57.6 µM; in the assay with 786-0 renal, 29.2 µM; in the assay with NCI-H23 lung it was 34.5 µM; in the assay on EKVX NSCLC, 27.8 µM; in the assay on BT-549 breast it was 68.1 µM; in the assay on U251 CNS, 40.6 µM. Besides, the TGI with A498 renal was 25 µM; in the assay on NCI-H460 lung, 40.4 µM; in the assay on SF-268 CNS, 60.7 µM; with HCT-15 colon, 60.9 µM.

In the case of `CN(C)c1ccc2cc(-c3cc4c(oc3=O)-c3ccccc3OC4O)c(=O)oc2c1` (centres undefined), the GI50 in the assay on OVCAR-8 ovarian was 3.2 µM; in the assay with 786-0 renal it was 8.33 µM; with NCI-H23 lung, 1.41 µM; in the assay with EKVX NSCLC it was 2.18 µM; with BT-549 breast, 2.11 µM; in the assay with U251 CNS, 5.85 µM. For the same compound, the GI50 in the assay on A498 renal is 5.67 µM; in the assay with NCI-H460 lung, 4.14 µM; with SF-268 CNS, 6.26 µM; with HCT-15 colon, 3.81 µM. Also, the TGI with OVCAR-8 ovarian is 15.7 µM; in the assay with 786-0 renal, over 25 µM; in the assay with NCI-H23 lung, 13.4 µM; with EKVX NSCLC, over 25 µM; with BT-549 breast it was 6.72 µM; with U251 CNS, 15.7 µM. Moreover, the TGI was 23.5 µM with A498 renal, 14.3 µM in the assay on NCI-H460 lung, 18.7 µM in the assay on SF-268 CNS and 8.9 µM with HCT-15 colon.

For the compound `Cc1cccc2c1NC(=O)[C@@]21[C@H](C(=O)c2ccccc2)[C@]2(C(=O)Nc3ccccc32)[C@H]2CCCN21`, the GI50 in the assay with OVCAR-8 ovarian was 25.2 µM; with 786-0 renal it was 36 µM; in the assay on NCI-H23 lung, 47 µM; with EKVX NSCLC, 40.6 µM; with BT-549 breast, 27.4 µM; in the assay with U251 CNS, 28 µM. The GI50 in the assay with A498 renal is over 100 µM; in the assay on NCI-H460 lung, 24.6 µM; with SF-268 CNS it was 30.8 µM; with HCT-15 colon, 25.1 µM. For the same compound, the TGI in the assay on OVCAR-8 ovarian was 92.3 µM; in the assay with 786-0 renal, over 100 µM; with NCI-H23 lung, over 100 µM; in the assay with EKVX NSCLC it was over 100 µM; in the assay with BT-549 breast it was over 100 µM; in the assay with U251 CNS it was 92 µM. In addition, the TGI in the assay on A498 renal, in the assay with NCI-H460 lung, in the assay on SF-268 CNS and with HCT-15 colon was over 100 µM each time.

On to `COc1ccc(-c2nc(N)c3ncn(C4OC(CO)C(O)C4O)c3n2)cc1` (centres undefined), for which the TGI with OVCAR-8 ovarian, in the assay on 786-0 renal, in the assay with NCI-H23 lung, in the assay with EKVX NSCLC, in the assay with BT-549 breast and in the assay on U251 CNS was over 100 µM throughout. Further, the TGI with A498 renal, with NCI-H460 lung, in the assay on SF-268 CNS and with HCT-15 colon was over 100 µM in each case.

Consider `COC1CC2C=CC3C4OC2(/C(C)=C/C(C)C(C(C)O)OC1=O)C3C(O)C(C)C4OC(=O)c1ccc[nH]1` (centres undefined), for which the TGI with OVCAR-8 ovarian, with 786-0 renal, in the assay on NCI-H23 lung, with EKVX NSCLC, in the assay with BT-549 breast and in the assay on U251 CNS was over 100 µM in each case. The TGI in the assay with A498 renal, in the assay with NCI-H460 lung, with SF-268 CNS and in the assay with HCT-15 colon was over 100 µM each time.

`O=C1/C=C/[C@@H](O)[C@@H]2C[C@@H](O)C[C@H]2/C=C/CCC[C@H](CO)O1`: the GI50 is 3 µM with OVCAR-8 ovarian; 1.78 µM in the assay on 786-0 renal; 2.25 µM in the assay with NCI-H23 lung; 3.11 µM in the assay on EKVX NSCLC; 3.98 µM in the assay with BT-549 breast; 3.3 µM in the assay with U251 CNS. Also, the GI50 was 1.31 µM in the assay on A498 renal, 3.21 µM with NCI-H460 lung, 1.33 µM in the assay with SF-268 CNS and 3.62 µM in the assay with HCT-15 colon. In addition, the TGI in the assay on OVCAR-8 ovarian was over 100 µM; in the assay with 786-0 renal, 4.87 µM; with NCI-H23 lung, over 100 µM; in the assay on EKVX NSCLC, over 100 µM; in the assay on BT-549 breast, over 100 µM; in the assay with U251 CNS, over 100 µM. For the same compound, the TGI in the assay on A498 renal, in the assay with NCI-H460 lung, in the assay on SF-268 CNS and in the assay on HCT-15 colon was over 100 µM in each case.

Turning to `N/C(=N\c1nc2ccccc2s1)NC(=O)Nc1ccccc1Cl`, the GI50 with OVCAR-8 ovarian is 0.179 µM; in the assay with 786-0 renal, 0.184 µM; in the assay on NCI-H23 lung, 0.305 µM; in the assay with EKVX NSCLC, 0.427 µM; in the assay with BT-549 breast, 0.421 µM; in the assay on U251 CNS, 0.122 µM. The GI50 in the assay on A498 renal is 0.0818 µM; in the assay on NCI-H460 lung, 0.149 µM; in the assay with SF-268 CNS, 0.832 µM; in the assay on HCT-15 colon, 0.0643 µM. Moreover, the TGI in the assay with OVCAR-8 ovarian is 25.1 µM; in the assay with 786-0 renal, 10.4 µM; with NCI-H23 lung, 18.2 µM; in the assay on EKVX NSCLC it was over 100 µM; in the assay with BT-549 breast it was 4.86 µM; in the assay with U251 CNS it was 5.57 µM. For the same compound, the TGI was 0.579 µM in the assay with A498 renal, 10.4 µM in the assay with NCI-H460 lung, over 44.2 µM in the assay with SF-268 CNS and 18.9 µM in the assay with HCT-15 colon.
